We go through 27 compounds from article PMC10023679, “Amide-to-ester substitution as a stable alternative to N-methylation for increasing membrane permeability in cyclic peptides” (Nature Communications, 2023).

Each structure is given as a SMILES string. Non-standard residues stand in square brackets, D forms with d. Residues, ends and D or L forms follow the SMILES beside them. NMeF = CN[C@@H](Cc1ccccc1)C(=O)O; PhLac = O=C(O)[C@@H](O)Cc1ccccc1; Hica(2S) = CC(C)C[C@H](O)C(=O)O; NMeL = CN[C@@H](CC(C)C)C(=O)O; dHica = CC(C)C[C@@H](O)C(=O)O; dNMeL = CN[C@H](CC(C)C)C(=O)O

Data set [1] is described as follows: in vitro. The format is in vitro ADME.
The nature of data set [2]: Caco-2 assay (permeability across cell monolayers). It is filed as in vitro ADME. The following applies: Caco-2, 1 μM compounds in HBSS (pH 7.4) containing 10 mM HEPES and 1% DMSO, 3 h incubation at 37 °C, read-out: Caco-2 permeability Pa. For orientation: Passage across Caco-2 layers is used to estimate intestinal permeability.
Data set [3] is described as follows: 1,9-decadiene-water distribution coefficient. The following applies: decadiene and aqueous buffer. The format is physicochemical.
Data set [4] in a line: Stability in simulated gastric fluid (SGF). The format is in vitro ADME. The following applies: pH 1.2, 37 °C, at 4 h. On the procedure: The stability assay of peptides in SGF was conducted according to United States Pharmacopeia & National Formulary (USP 25-NF 20)[64] and the previous report[65] with some modifications as follows. SGF used in this study was prepared by dissolving pepsin (3.6 mg/mL) (Sigma, P7012, 3357 Unit/mg) in an aqueous solution of 2 mg/mL sodium chloride (NaCl) at pH 1.2. The solution was vortexed for 1 min, sonicated for 15 min, centrifuged at 20,000 × g for 10 min, and filtered before use. 57 μL of SGF was incubated at 37 °C for 15 min and 3 μL of 1 μM peptide solution in DMSO was added to the warmed […]. After 1, 2, or 4 h, 60 μL of ice-cold ultra-pure water containing 5% trifluoroacetic acid was added and 120 μL of 30% acetonitrile in ultra-pure water was added. The samples were filtered and injected into UPLC.
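Wherever Pe (PAMPA), CP1-Y1F-L2K series is given: filter plate membrane of 1% soybean lecithin in dodecane, donor and acceptor in 5% DMSO/PBS, incubated at 25 °C, peptide in both compartments measured by LC-MS.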

On to `CC(C)C[C@@H]1NC(=O)[C@@H](CC(C)C)NC(=O)[C@H](CO)NC(=O)[C@H](Cc2ccccc2)OC(=O)[C@H]2CCCN2C(=O)[C@H](CC(C)C)NC1=O` [CP1-Y1F-L2S O] (cyclo(LL[dP][PhLac]S[dL])), for which the Papp in data set [1] (PAMPA) is 4.1 ×10⁻⁶ cm/s.
Consider `CC(C)C[C@@H]1NC(=O)[C@H](Cc2ccc(O)cc2)NC(=O)[C@H]2CCCN2C(=O)[C@H](CC(C)C)NC(=O)[C@H](CC(C)C)OC(=O)[C@@H](CC(C)C)NC1=O` [DP4] (cyclo(L[dL][Hica(2S)]L[dP]Y)), for which the Papp in data set [2] was found to be 1.2 ×10⁻⁶ cm/s; in data set [1] (PAMPA) it was 4.2 ×10⁻⁶ cm/s.
Take `CC(C)C[C@@H]1NC(=O)[C@@H](CC(C)C)NC(=O)[C@H](CCCCN)NC(=O)[C@H](Cc2ccccc2)N(C)C(=O)[C@H]2CCCN2C(=O)[C@H](CC(C)C)NC1=O` [CP1-Y1F-L2K NMe] (cyclo(K[dL]LL[dP][NMeF])): the Papp in data set [1] (PAMPA) was < 0.00075 ×10⁻⁶ cm/s.
With `CC(C)C[C@@H]1NC(=O)[C@@H](CC(C)C)OC(=O)[C@H](CC(C)C)NC(=O)[C@H](Cc2ccc(O)cc2)NC(=O)[C@H]2CCCN2C(=O)[C@H](CC(C)C)NC1=O` [DP3] (cyclo(LL[dP]YL[dHica])), the Papp in data set [2] was found to be 0.2 ×10⁻⁶ cm/s; in data set [1] (PAMPA), 1.3 ×10⁻⁶ cm/s.
`CC(C)C[C@@H]1NC(=O)[C@H](CC(C)C)N(C)C(=O)[C@@H](C(C)C)NC(=O)[C@H](C)NC(=O)[C@H](C)NC(=O)[C@H]2CCCN2C(=O)[C@@H](CC(C)C)NC(=O)[C@@H]2CCCN2C(=O)[C@H](CC(C)C)NC1=O` (relative stereo) displayed a Papp at 16 h, 3 μM in data set [1] (PAMPA) of 0.1 ×10⁻⁶ cm/s.
Consider `CC(C)C[C@@H]1NC(=O)[C@H](Cc2ccc(O)cc2)NC(=O)[C@H]2CCCN2C(=O)[C@H](CC(C)C)OC(=O)[C@H](CC(C)C)NC(=O)[C@@H](CC(C)C)NC1=O` [DP5] (cyclo(L[dL]L[Hica(2S)][dP]Y)), for which the Papp in data set [2] amounted to 2.8 ×10⁻⁶ cm/s; in data set [1] (PAMPA), 4.4 ×10⁻⁶ cm/s.
`CC(C)C[C@@H]1NC(=O)[C@@H](CC(C)C)NC(=O)[C@H](CO)NC(=O)[C@H](Cc2ccccc2)NC(=O)[C@H]2CCCN2C(=O)[C@H](CC(C)C)NC1=O` [CP1-Y1F-L2S] (cyclo(FS[dL]LL[dP])) came in with a Papp in data set [1] (PAMPA) of 0.3 ×10⁻⁶ cm/s.
`CC(C)C[C@@H]1NC(=O)[C@@H](CC(C)C)NC(=O)[C@H](CCCCN)NC(=O)[C@H](Cc2ccccc2)NC(=O)[C@H]2CCCN2C(=O)[C@H](CC(C)C)NC1=O` [CP1-Y1F-L2K] (cyclo(FK[dL]LL[dP])): the Papp in data set [1] (PAMPA) was < 0.0007 ×10⁻⁶ cm/s.
Take `CC(C)C[C@@H]1C(=O)N[C@H](C(C)C)C(=O)N[C@H](C)C(=O)N2CCC[C@@H]2C(=O)N[C@H](CC(C)C)C(=O)N[C@H](C(C)C)C(=O)N[C@H](C)C(=O)N2CCC[C@@H]2C(=O)N1C` (cyclo([dA][dP][dL][dV][dA][dP][dNMeL][dV])): the Papp at 16 h, 3 μM in data set [1] (PAMPA) is 0.01 ×10⁻⁶ cm/s.
Still for that read-out and setting: as for `CC(C)C[C@@H]1NC(=O)[C@H]2CCCN2C(=O)[C@H](CC(C)C)OC(=O)[C@@H](C(C)C)NC(=O)[C@H](CC(C)C)NC(=O)[C@H]2CCCN2C(=O)[C@H](CC(C)C)N(C)C(=O)[C@@H](C(C)C)NC1=O` [D8.21-ester] (cyclo(L[dV][NMeL][dP]L[dV][Hica(2S)][dP])), the figure is 5.8 ×10⁻⁶ cm/s.
As to `CC(=O)N[C@@H](Cc1ccccc1)C(=O)N(C)[C@@H](Cc1ccccc1)C(N)=O` [M1] (Ac-Phe-[NMeF]-NH2), the “log Ddec/w (1,9-decadiene–water distribution coefficient)” value (“log Ddec/w” below) in data set [3] was “–1.24 ± 0.01”.
Consider `CC(C)C[C@@H]1NC(=O)[C@@H](CC(C)C)NC(=O)[C@H](CC(C)C)N(C)C(=O)[C@H](Cc2ccc(O)cc2)NC(=O)[C@H]2CCCN2C(=O)[C@H](CC(C)C)NC1=O` [MP2] (cyclo(LL[dP]Y[NMeL][dL])), for which the Papp in data set [2] worked out at 0.3 ×10⁻⁶ cm/s; in data set [1] (PAMPA), 1 ×10⁻⁶ cm/s.
`CC(C)C[C@@H]1NC(=O)[C@H]2CCCN2C(=O)[C@H](CC(C)C)NC(=O)[C@@H](C(C)C)NC(=O)[C@H](CC(C)C)NC(=O)[C@H]2CCCN2C(=O)[C@H](CC(C)C)N(C)C(=O)[C@@H](C(C)C)NC1=O` [D8.21-amide] (cyclo(L[dP]L[dV][NMeL][dP]L[dV])) displayed a Papp at 16 h, 3 μM in data set [1] (PAMPA) of 1.6 ×10⁻⁶ cm/s.
Turning to `CC(C)C[C@@H]1NC(=O)[C@H](Cc2ccc(O)cc2)NC(=O)[C@H]2CCCN2C(=O)[C@H](CC(C)C)NC(=O)[C@H](CC(C)C)N(C)C(=O)[C@@H](CC(C)C)NC1=O` [MP4] (cyclo(L[dL][NMeL]L[dP]Y)), the figures for the Papp in data set [2] and in data set [1] (PAMPA) were 0.5 ×10⁻⁶ cm/s and 2.5 ×10⁻⁶ cm/s, respectively.
Regarding `CC(=O)N[C@@H](CC(C)C)C(=O)N(C)[C@@H](Cc1ccccc1)C(N)=O` [M2] (Ac-Leu-[NMeF]-NH2), the “log Ddec/w” value in data set [3] is listed as “–1.62 ± 0.02”. Besides, in data set [1] (PAMPA, pH 7.4), the Papp worked out at 0.2 ×10⁻⁶ cm/s.
Compound `CC(C)C[C@@H]1C(=O)N[C@H](C(C)C)C(=O)N[C@H](C)C(=O)N2CCC[C@@H]2C(=O)N(C)[C@H](CC(C)C)C(=O)N[C@H](C(C)C)C(=O)N[C@H](C)C(=O)N2CCC[C@@H]2C(=O)N1C` [D8.31, reference compound] (cyclo([dA][dP][dNMeL][dV][dA][dP][dNMeL][dV])) returned a Papp at 16 h, 3 μM in data set [1] (PAMPA) of 0.2 ×10⁻⁶ cm/s.
With `CC(=O)N[C@@H](CC(C)C)C(=O)N(C)[C@@H](CC(C)C)C(N)=O` [M3], in data set [3], the “log Ddec/w” value is on record as “–2.13 ± 0.02”. The Papp in data set [1] (PAMPA, pH 7.4) turned out to be 0.1 ×10⁻⁶ cm/s.
Take `C[C@H](N)C(=O)NCC(=O)N[C@H]1CSSC[C@@H](C(=O)O)NC(=O)[C@H](CO)NC(=O)[C@H]([C@@H](C)O)NC(=O)[C@H](Cc2ccccc2)NC(=O)[C@H]([C@@H](C)O)NC(=O)[C@H](CCCCN)NC(=O)[C@H](Cc2c[nH]c3ccccc23)NC(=O)[C@H](Cc2ccccc2)NC(=O)[C@H](Cc2ccccc2)NC(=O)[C@H](CC(N)=O)NC(=O)[C@H](CCCCN)NC1=O` [somatostatin, reference compound]: the “Fraction degraded in SGF” value in data set [4] (SGF-containing pepsin) is listed as “more than 90%”. Moreover, the metabolised at 4 h, 0.05 μM in data set [4] (simulated gastric fluid (SGF) containing pepsin, read-out: Fraction degraded in SGF) is 98%.
Take `CC(C)C[C@@H]1NC(=O)[C@@H](CC(C)C)NC(=O)[C@H](CO)NC(=O)[C@H](Cc2ccccc2)N(C)C(=O)[C@H]2CCCN2C(=O)[C@H](CC(C)C)NC1=O` [CP1-Y1F-L2S NMe] (cyclo(LL[dP][NMeF]S[dL])): the Papp in data set [1] (PAMPA) was 0.5 ×10⁻⁶ cm/s.
Regarding `CC(C)C[C@@H]1NC(=O)[C@@H](CC(C)C)NC(=O)[C@H](CCCCN)NC(=O)[C@H](Cc2ccccc2)OC(=O)[C@H]2CCCN2C(=O)[C@H](CC(C)C)NC1=O` [CP1-Y1F-L2K O] (cyclo(K[dL]LL[dP][PhLac])), the “Pe (PAMPA), CP1-Y1F-L2K series” value in data set [1] was 4.9 ×10⁻⁶ cm/s. The same compound showed a Papp in data set [1] (PAMPA) of 0.0049 ×10⁻⁶ cm/s.
For the compound `CC(C)C[C@@H]1NC(=O)[C@H]2CCCN2C(=O)[C@H](CC(C)C)N(C)C(=O)[C@@H](C(C)C)NC(=O)[C@H](CC(C)C)NC(=O)[C@H]2CCCN2C(=O)[C@H](CC(C)C)N(C)C(=O)[C@@H](C(C)C)NC1=O` [D8.21, reference compound] (cyclo(L[dV][NMeL][dP]L[dV][NMeL][dP])), in data set [1] (PAMPA), the Papp at 16 h, 3 μM was found to be 8.2 ×10⁻⁶ cm/s.
As to `CC(=O)N[C@@H](Cc1ccccc1)C(=O)N[C@@H](Cc1ccccc1)C(N)=O` [P1] (Ac-Phe-Phe-NH2), the “log Ddec/w” value in data set [3] is “–2.75 ± 0.01”.
Consider `CC(C)C[C@@H]1NC(=O)[C@@H](CC(C)C)N(C)C(=O)[C@H](CC(C)C)NC(=O)[C@H](Cc2ccc(O)cc2)NC(=O)[C@H]2CCCN2C(=O)[C@H](CC(C)C)NC1=O` [MP3] (cyclo(LL[dP]YL[dNMeL])), for which the Papp at 3 h, 1 μM in data set [2] (human) was 0.2 ×10⁻⁶ cm/s. The Papp at 16 h, 2 μM in data set [1] (PAMPA) stood at 0.6 ×10⁻⁶ cm/s.
As to `CC(=O)N[C@@H](Cc1ccccc1)C(=O)O[C@@H](Cc1ccccc1)C(N)=O` [D1], the “log Ddec/w” value in data set [3] is reported as “–1.17 ± 0.01”. In data set [1] (PAMPA, pH 7.4), this compound registered a Papp of 1.2 ×10⁻⁶ cm/s.
`CC(C)C[C@@H]1C(=O)N[C@H](C(C)C)C(=O)N[C@H](C)C(=O)N2CCC[C@@H]2C(=O)O[C@H](CC(C)C)C(=O)N[C@H](C(C)C)C(=O)N[C@H](C)C(=O)N2CCC[C@@H]2C(=O)N1C` (cyclo([dA][dP][dNMeL][dV][dA][dP][dHica][dV])): the Papp at 16 h, 3 μM in data set [1] (PAMPA) stood at 0.03 ×10⁻⁶ cm/s.
On the same count and under the same terms, in the case of `CC(C)C[C@@H]1NC(=O)[C@H](CC(C)C)N(C)C(=O)[C@@H](C(C)C)NC(=O)[C@H](C)NC(=O)[C@H](C)OC(=O)[C@H]2CCCN2C(=O)[C@@H](CC(C)C)NC(=O)[C@@H]2CCCN2C(=O)[C@H](CC(C)C)NC1=O` (relative stereo) it was 1.1 ×10⁻⁶ cm/s.
For `CC(C)C[C@@H]1NC(=O)[C@H](Cc2ccc(O)cc2)NC(=O)[C@H]2CCCN2C(=O)[C@H](CC(C)C)N(C)C(=O)[C@H](CC(C)C)NC(=O)[C@@H](CC(C)C)NC1=O` [MP5] (cyclo(L[NMeL][dP]YL[dL])), the Papp stood at 1.2 ×10⁻⁶ cm/s in data set [2] and 1.7 ×10⁻⁶ cm/s in data set [1] (PAMPA).
